Patent publication US20250236608A1, “EGFR INHIBITORS” (Blueprint Medicines Corporation, priority 2022, published 2025)
pIC50: −log10 of the molar value.

How the values were obtained:
EGFR L858R = EGFR L858R (Homo sapiens (Human), UniProt P00533, L858R); assay: Biochemical EGFR inhibition assay, EGFR L858R; details: Caliper mobility shift; 1.0 mM ATP or ATP Km; read-out: Enz EGFR_L858R IC50
[1] = target: pEGFR (Tyr1068) in PC-9 cells (Ex19Del) (Homo sapiens (Human), UniProt P00533, DEL746-750); assay: PC-9 pEGFR AlphaLISA assay; assay type: cell-based; details: 4 hours incubation, p-EGFR (Tyr1068) AlphaLISA, read-out: Ext pEGFR_PC-9 Ex19Del IC50
Outline: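 PC-9 cells seeded overnight in phenol-free DMEM with 10% FBS, then treated 4 h at 37°C with a 10-point, 4-fold compound series. Lysates assayed for pEGFR Tyr1068 by AlphaLISA SureFire; IC50 from % inhibition vs log concentration.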

EGFR (d746-750) = EGFR (d746-750) (Homo sapiens (Human), UniProt P00533, DEL746-750); assay: Biochemical EGFR inhibition assay, EGFR (d746-750); details: Caliper mobility shift; 1.0 mM ATP or ATP Km; read-out: Enz EGFR_Exon19-del746-750 IC50
Sequence of EGFR (d746-750) (P00533 other isoform, or with tags, fused parts or gaps del 1-694/del 746-750 limits assumed): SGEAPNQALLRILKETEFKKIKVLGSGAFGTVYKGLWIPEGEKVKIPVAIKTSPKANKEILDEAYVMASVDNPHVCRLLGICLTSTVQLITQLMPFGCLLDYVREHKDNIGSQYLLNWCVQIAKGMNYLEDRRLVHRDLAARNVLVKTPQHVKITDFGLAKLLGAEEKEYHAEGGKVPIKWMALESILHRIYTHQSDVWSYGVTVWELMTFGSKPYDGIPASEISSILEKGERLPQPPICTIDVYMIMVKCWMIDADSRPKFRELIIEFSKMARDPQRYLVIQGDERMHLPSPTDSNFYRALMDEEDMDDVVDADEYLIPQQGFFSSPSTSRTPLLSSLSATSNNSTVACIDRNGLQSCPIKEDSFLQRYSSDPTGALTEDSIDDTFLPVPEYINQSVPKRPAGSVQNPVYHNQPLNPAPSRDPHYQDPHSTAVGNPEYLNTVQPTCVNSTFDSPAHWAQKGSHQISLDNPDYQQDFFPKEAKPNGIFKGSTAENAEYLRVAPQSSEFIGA

Sequence of EGFR L858R (P00533 25-1210 L858R): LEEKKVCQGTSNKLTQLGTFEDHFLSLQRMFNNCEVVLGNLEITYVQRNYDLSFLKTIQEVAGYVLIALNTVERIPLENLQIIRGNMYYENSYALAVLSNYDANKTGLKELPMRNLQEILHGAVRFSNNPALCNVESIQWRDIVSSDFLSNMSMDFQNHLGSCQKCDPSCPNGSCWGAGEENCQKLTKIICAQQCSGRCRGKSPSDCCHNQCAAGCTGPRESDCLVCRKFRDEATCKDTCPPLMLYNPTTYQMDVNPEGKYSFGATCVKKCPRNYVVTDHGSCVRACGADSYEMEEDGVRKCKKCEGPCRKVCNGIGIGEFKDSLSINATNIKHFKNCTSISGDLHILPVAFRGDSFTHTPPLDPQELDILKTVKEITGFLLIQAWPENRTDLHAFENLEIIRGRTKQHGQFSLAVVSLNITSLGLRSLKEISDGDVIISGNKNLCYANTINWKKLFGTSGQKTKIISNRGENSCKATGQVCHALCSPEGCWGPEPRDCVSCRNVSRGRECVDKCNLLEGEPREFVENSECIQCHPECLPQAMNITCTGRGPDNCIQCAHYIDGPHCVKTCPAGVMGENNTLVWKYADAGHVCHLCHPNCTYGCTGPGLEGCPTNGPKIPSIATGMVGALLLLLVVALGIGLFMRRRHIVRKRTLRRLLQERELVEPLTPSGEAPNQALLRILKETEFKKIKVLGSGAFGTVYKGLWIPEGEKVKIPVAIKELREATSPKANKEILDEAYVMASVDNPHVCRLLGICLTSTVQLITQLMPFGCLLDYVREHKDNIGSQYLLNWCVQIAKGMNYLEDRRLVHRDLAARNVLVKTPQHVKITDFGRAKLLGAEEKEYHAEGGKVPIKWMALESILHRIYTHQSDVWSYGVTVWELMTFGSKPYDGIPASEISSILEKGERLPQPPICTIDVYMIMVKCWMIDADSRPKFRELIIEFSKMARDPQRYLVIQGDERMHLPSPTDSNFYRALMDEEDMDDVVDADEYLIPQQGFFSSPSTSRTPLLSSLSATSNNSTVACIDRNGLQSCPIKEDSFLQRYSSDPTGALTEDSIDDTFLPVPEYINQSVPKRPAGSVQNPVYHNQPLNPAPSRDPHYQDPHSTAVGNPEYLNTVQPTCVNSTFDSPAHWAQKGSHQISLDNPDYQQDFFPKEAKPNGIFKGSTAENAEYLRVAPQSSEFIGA
Sequence of pEGFR (Tyr1068) in PC-9 cells (Ex19Del) (P00533 other isoform, or with tags, fused parts or gaps del 746-750): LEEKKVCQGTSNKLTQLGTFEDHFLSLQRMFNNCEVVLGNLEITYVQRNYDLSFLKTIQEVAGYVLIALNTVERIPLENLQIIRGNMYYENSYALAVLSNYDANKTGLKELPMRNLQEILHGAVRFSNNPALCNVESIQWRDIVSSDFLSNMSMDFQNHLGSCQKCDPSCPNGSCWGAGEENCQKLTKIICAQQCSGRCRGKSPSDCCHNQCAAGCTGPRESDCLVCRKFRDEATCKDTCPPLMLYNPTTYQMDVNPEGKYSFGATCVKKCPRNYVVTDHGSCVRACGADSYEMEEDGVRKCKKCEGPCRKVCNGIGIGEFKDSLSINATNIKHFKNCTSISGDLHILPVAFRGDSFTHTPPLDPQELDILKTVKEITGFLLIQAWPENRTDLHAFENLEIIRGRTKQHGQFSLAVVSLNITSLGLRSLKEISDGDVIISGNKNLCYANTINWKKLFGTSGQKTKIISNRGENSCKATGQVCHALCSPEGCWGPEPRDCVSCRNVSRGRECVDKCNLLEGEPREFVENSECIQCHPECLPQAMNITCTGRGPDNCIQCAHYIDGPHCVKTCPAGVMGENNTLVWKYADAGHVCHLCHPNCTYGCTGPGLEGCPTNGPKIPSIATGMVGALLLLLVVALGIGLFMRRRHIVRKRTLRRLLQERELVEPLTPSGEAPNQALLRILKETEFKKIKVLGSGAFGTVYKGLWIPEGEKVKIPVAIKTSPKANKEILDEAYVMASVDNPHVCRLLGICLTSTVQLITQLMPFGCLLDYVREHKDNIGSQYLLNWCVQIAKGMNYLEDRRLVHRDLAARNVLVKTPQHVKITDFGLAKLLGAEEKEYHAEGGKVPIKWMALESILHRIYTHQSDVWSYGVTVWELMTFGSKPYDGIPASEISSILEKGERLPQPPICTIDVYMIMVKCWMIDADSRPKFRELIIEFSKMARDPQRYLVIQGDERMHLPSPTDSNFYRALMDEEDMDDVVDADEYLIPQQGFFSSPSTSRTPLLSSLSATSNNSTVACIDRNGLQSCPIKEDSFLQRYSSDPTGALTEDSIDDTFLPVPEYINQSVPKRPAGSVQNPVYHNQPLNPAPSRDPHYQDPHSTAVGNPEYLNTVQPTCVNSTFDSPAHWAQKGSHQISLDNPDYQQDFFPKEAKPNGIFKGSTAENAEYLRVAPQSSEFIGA

Row | Structure (SMILES) | pIC50 (EGFR L858R) | pIC50 [1] | pIC50 (EGFR (d746-750))
1 | CCOc1cc2ncnc(-c3cn(C)nc3-c3ccccc3)c2nc1NC(=O)[C@@]12C[C@@H]1CN(C)C2 (single isomer, unassigned) [Example 377, (1S,5S)—N-(7-ethoxy-4-(1-methyl-3-phenyl-1H-pyrazol-4-yl)pyrido[3,2-d]pyrimidin-6-yl)-3-methyl-3-azabicyclo[3.1.0]hexane-1-carboxamide or (1R,5R)—N-(7-ethoxy-4-(1-methyl-3-phenyl-1H-pyrazol-4-yl)pyrido[3,2-d]pyrimidin-6-yl)-3-methyl-3-azabicyclo[3.1.0]hexane-1-carboxamide] | 8.66 | 8.55 | 8.89
2 | COc1cc2ncnc(-c3cn(C)nc3-c3ccccc3)c2nc1NC(=O)C12CC(C1)C2 [Example 309, N-(7-methoxy-4-(1-methyl-3-phenyl-1H-pyrazol-4-yl)pyrido[3,2-d]pyrimidin-6-yl)bicyclo[1.1.1]pentane-1-carboxamide] | 8.51 | 8.55 | 8.72
3 | COc1cc2ncnc(-c3cn(C)nc3-c3ccccc3)c2cc1OC(=O)N1CCN(C)C[C@H]1C (single isomer, unassigned) [Example 58, 7-methoxy-4-(1-methyl-3-phenyl-1H-pyrazol-4-yl)quinazolin-6-yl (R)-2,4-dimethylpiperazine-1-carboxylate or 7-methoxy-4-(1-methyl-3-phenyl-1H-pyrazol-4-yl)quinazolin-6-yl(S)-2,4-dimethylpiperazine-1-carboxylate] | 8.35 | 8.29 | 8.60
4 | COc1cc2ncnc(-c3cn(C)nc3-c3ccccc3)c2cc1OC(=O)N1CCOC[C@@H]1C [Example 62, 7-methoxy-4-(1-methyl-3-phenyl-1H-pyrazol-4-yl)quinazolin-6-yl (S)-3-methylmorpholine-4-carboxylate] | 8.38 | 8.06 | 8.60
5 | COc1cc2ncnc(-c3cn(C)nc3-c3ccc(F)cc3)c2nc1NC(=O)[C@@]12C[C@@H]1CN(C)C2 (single isomer, unassigned) [Example 410, (1S,5S)—N-(4-(3-(4-fluorophenyl)-1-methyl-1H-pyrazol-4-yl)-7-methoxypyrido[3,2-d]pyrimidin-6-yl)-3-methyl-3-azabicyclo[3.1.0]hexane-1-carboxamide or (1R,5R)—N-(4-(3-(4-fluorophenyl)-1-methyl-1H-pyrazol-4-yl)-7-methoxypyrido[3,2-d]pyrimidin-6-yl)-3-methyl-3-azabicyclo[3.1.0]hexane-1-carboxamide] | 8.54 | 8.60 | 8.96
6 | COc1cc2ncnc(-c3cn(C)nc3-c3ccccc3)c2cc1NC(=O)C1CC(F)(F)C1 [Example 346, 3,3-difluoro-N-(7-methoxy-4-(1-methyl-3-phenyl-1H-pyrazol-4-yl)quinazolin-6-yl)cyclobutane-1-carboxamide] | 8.68 | 9.05 | 8.89
7 | CC(C)Oc1cc2ncnc(-c3cn(C)nc3-c3ccccc3)c2cc1[C@@H](C)O (single isomer, unassigned) [Example 114, (R)-1-(7-isopropoxy-4-(1-methyl-3-phenyl-1H-pyrazol-4-yl)quinazolin-6-yl)ethan-1-ol or (S)-1-(7-isopropoxy-4-(1-methyl-3-phenyl-1H-pyrazol-4-yl)quinazolin-6-yl)ethan-1-ol] | 8.54 | 7.54 | 8.64
8 | CCn1cc([C@H](C)Oc2nc3c(-c4cn(C)nc4-c4ccccc4)ncnc3cc2OC)nn1 [Example 36, (S)-6-(1-(1-ethyl-1H-1,2,3-triazol-4-yl)ethoxy)-7-methoxy-4-(1-methyl-3-phenyl-1H-pyrazol-4-yl)pyrido[3,2-d]pyrimidine] | 8.01 | 7.85 | 8.49
9 | COc1cc2ncnc(-c3cn(C)nc3-c3ccccc3)c2nc1NC(=O)C1(C(F)(F)F)CCOCC1 [Example 383, N-(7-methoxy-4-(1-methyl-3-phenyl-1H-pyrazol-4-yl)pyrido[3,2-d]pyrimidin-6-yl)-4-(trifluoromethyl)tetrahydro-2H-pyran-4-carboxamide] | 8.35 | 8.24 | 8.77
10 | COc1cc2ncnc(-c3cn(C)nc3-c3ccccc3)c2cc1NC(=O)C[C@@H]1CCCO1 [Example 281, (S)—N-(7-methoxy-4-(1-methyl-3-phenyl-1H-pyrazol-4-yl)quinazolin-6-yl)-2-(tetrahydrofuran-2-yl) acetamide] | 8.66 | 8.64 | 8.85

Now those with a higher pIC50 (EGFR L858R), led by results:

Row | pIC50 (EGFR L858R) | pIC50 [1] | pIC50 (EGFR (d746-750)) | Structure (SMILES)
11 | 8.92 | 9.00 | 9.10 | COc1cc2ncnc(-c3cn(C)nc3-c3ccccc3)c2cc1NC(=O)c1cnccc1F [Example 326, 4-fluoro-N-(7-methoxy-4-(1-methyl-3-phenyl-1H-pyrazol-4-yl)quinazolin-6-yl) nicotinamide]
12 | 8.70 | 8.89 | 9.10 | COc1cc2ncnc(-c3cn(C)nc3-c3ccccc3F)c2cc1NC(=O)C1(CN(C)C)CC1 [Example 188, 1-((dimethylamino)methyl)-N-(4-(3-(2-fluorophenyl)-1-methyl-1H-pyrazol-4-yl)-7-methoxyquinazolin-6-yl)cyclopropane-1-carboxamide]
13 | 8.96 | 9.40 | 9.15 | COc1cc2ncnc(-c3cn(CC(F)F)nc3-c3ccccc3)c2nc1NC(=O)C1(C(F)(F)F)CC1 [Example 370, N-(4-(1-(2,2-difluoroethyl)-3-phenyl-1H-pyrazol-4-yl)-7-methoxypyrido[3,2-d]pyrimidin-6-y1)-1-(trifluoromethyl)cyclopropane-1-carboxamide]
14 | 8.96 | 8.77 | 9.22 | COc1cc2ncnc(-c3cn(C)nc3-c3ccccc3)c2cc1NC(=O)[C@@H]1CCN(C)C1 [Example 210, (R)-N-(7-methoxy-4-(1-methyl-3-phenyl-1H-pyrazol-4-yl)quinazolin-6-yl)-1-methylpyrrolidine-3-carboxamide]
15 | 8.96 | 8.96 | 9.22 | CCn1cc(-c2ncnc3cc(OC)c(NC(=O)[C@@]45COC[C@@H]4C5)cc23)c(-c2ccccc2F)n1 (mixture of isomers) [Example 262, (1R,5R)—N-(4-(1-ethyl-3-(2-fluorophenyl)-1H-pyrazol-4-yl)-7-methoxyquinazolin-6-yl)-3-oxabicyclo[3.1.0]hexane-1-carboxamide and (1S,5S)—N-(4-(1-ethyl-3-(2-fluorophenyl)-1H-pyrazol-4-yl)-7-methoxyquinazolin-6-yl)-3-oxabicyclo[3.1.0]hexane-1-carboxamide]
16 | 8.77 | 8.32 | 8.92 | COc1cc2ncnc(-c3cn(C)nc3-c3ccccc3)c2cc1O[C@@H](C)C1COC1 [Example 22, (S)-7-methoxy-4-(1-methyl-3-phenyl-1H-pyrazol-4-yl)-6-(1-(oxetan-3-yl)ethoxy)quinazoline]
17 | 8.92 | 8.51 | 9.15 | CCOc1cc2ncnc(-c3cn(C4CC4)nc3-c3ccccc3)c2cc1CO [Example 135, (4-(1-cyclopropyl-3-phenyl-1H-pyrazol-4-yl)-7-ethoxyquinazolin-6-yl)methanol]
18 | 8.70 | 8.92 | 9.05 | CCOc1cc2ncnc(-c3cn(CC)nc3-c3ccccc3)c2cc1N1CCOCC1 [Example 170, 4-(7-ethoxy-4-(1-ethyl-3-phenyl-1H-pyrazol-4-yl)quinazolin-6-yl)morpholine]
